Consider 1 substance from patent US6998479B1, “Derivatives of cyclodextrins” (priority 1998, dated 2006).

A short description of assay [1]: Reaction of aminooxy-CD with 4-thiouracil followed by UV spectra. The settings on record: 1 mM 4-thiouracil, 0.1 M compound, 20° C., neutral pH (7.0), 1 mm path. As to the method:
FIG. 1a. Time course of the UV spectra (optical path length 1 mm) of a reaction mixture containing 1 mM 4-thiouracil in 100 mM 4-aminooxy-2-butenyl-beta-cyclodextrin (I; see Example I.2) at pH 7.0. Incubation at 20° C. is indicated as hours.
FIG. 1b. Time course of the UV spectra (optical path length 1 mm) of a reaction mixture containing 1 mM 4-thiouracil and 100 mM 1-aminooxybutane at 20° C. at pH 7.00. Incubation time (hours) is indicated.
A 1 mM solution of 4-thiouracil (Lacheama, Brno, Czechoslovakia) was incubated at 20° C. within a 0.1 M solution of 4-aminooxy-2-butenyl-β-CD (I) at neutral pH. The UV-spectra were recorded at certain time intervals using cuvettes of 1 mm optical path length (FIG. 1a). This reaction was compared with the reaction of 4-thiouracil with 1-aminooxybutane under the same reaction conditions (FIG. 1b).

Assay [2] is described as follows: Reaction of aminooxy-CD with 6-mercaptopurine riboside followed by UV spectra. The settings on record: 1 mM 6-mercaptopurine riboside, 0.1 M compound, 20° C., pH 7.00, 1 mm path. The protocol:
FIG. 2a. Time course of the UV spectra (optical path length 1 mm) of a reaction mixture containing 1 mM 6-mercaptopurineriboside with 100 mM 4-aminooxy-2-butenyl-beta-cyclodextrin (see Example I.2). Incubation time (hours) is indicated.
FIG. 2b. Time course of the UV spectra (optical path length b 1 mm) of a reaction mixture containing 1 mM 6-mercaptopurineriboside with 100 mM 1-aminooxybutane at pH 7.00. Incubation time (hours) is indicated.
A 1 mM solution of 6-mercaptopurine riboside (Sigma Chem. Co., USA) was incubated at 20° C. within 0.1 M of 4-aminooxy-2-butenyl-β-CD (I).

4-aminooxy-2-butenyl-beta-cyclodextrin: in assay [1], the “velocity of reaction with 4-thiouracil compared with 1-aminooxybutane” value is recorded as “significantly higher velocity of reaction”. The “reaction rate with 6-mercaptopurine riboside compared with 1-aminooxybutane” value in assay [2] is “drastically higher reaction rates”.
